Tests used:
MRSA strains = test: MIC by agar dilution or microbroth dilution method (NCCLS); format: cell-based, Staph. aureus
Outline: (§1)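 MICs determined by NCCLS agar dilution or microbroth dilution on clinical isolates, with Staph. aureus 29213 as quality control strain. Synergy by agar dilution checkerboard; FIC computed as MIC of drug in combination divided by MIC alone, summed into FIC index.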

VRSA strains = test: MIC by agar dilution or microbroth dilution method (NCCLS), VRSA strains; format: cell-based, Staph. aureus; conditions: VRSA strains (n = 10)
Outline: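 Clinical isolates from human infections, including VRSA strains from five countries, with S. aureus 29213 as QC strain. MICs by NCCLS agar dilution or microbroth dilution; combination synergy by agar dilution checkerboard, expressed as FIC index from MIC in combination over MIC alone.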

Staph. aureus 29213 = test: MIC, quality control strain; format: cell-based
Outline: as §1

MICs 50% (MRSA strains; MRSA strains (n = 38)): 16 mg/L | MICs 90% (MRSA strains; MRSA strains (n = 38)): 64 mg/L | MICs Range (MRSA strains; MRSA strains (n = 38)): >0.125 to 128 mg/L | MIC Values (MRSA strains; strain 85/2082): 2 µg/mL | MIC Values (MRSA strains; strain 99.3700W): 32 µg/mL | MIC Values (MRSA strains; strain 99.3759V): 64 µg/mL | MIC Values (MRSA strains; strain AMC 11094): 32 µg/mL | MIC Values (MRSA strains; strain BM12612(new)): 128 µg/mL | MIC Values (MRSA strains; strain H1): 64 µg/mL | MIC Values (MRSA strains; strain HIP 5827): 64 µg/mL | MIC Values (MRSA strains; strain HIP 5836): 8 µg/mL | MIC Values (MRSA strains; strain HIP 6297): 1 µg/mL | MIC Values (MRSA strains; strain HIP 7737): 32 µg/mL | MIC Values (MRSA strains; strain JSCC 340): 64 µg/mL | MIC Values (MRSA strains; strain JSCC 351): 32 µg/mL | MIC Values (MRSA strains; strain JSCC 363): 32 µg/mL | MIC Values (MRSA strains; strain JSCC 381): 32 µg/mL | MIC Values (MRSA strains; strain JSCC 390): 32 µg/mL | MIC Values (MRSA strains; strain JSCC 401): 64 µg/mL | MIC Values (MRSA strains; strain JSCC 413): 16 µg/mL | MIC Values (MRSA strains; strain JSCC 431): 1 µg/mL | MIC Values (MRSA strains; strain JSCC 440): 16 µg/mL | MIC Values (MRSA strains; strain JSCC 451): 64 µg/mL | MIC Values (MRSA strains; strain JSCC 463): 64 µg/mL | MIC Values (MRSA strains; strain JSCC 481): 64 µg/mL | MIC Values (MRSA strains; strain JSCC 490): 32 µg/mL | MIC Values (MRSA strains; strain JSCC 501): 32 µg/mL | MIC Values (MRSA strains; strain JSCC 513): 8 µg/mL | MIC Values (MRSA strains; strain JSCC 531): 32 µg/mL | MIC Values (MRSA strains; strain JSCC 540): 64 µg/mL | MIC Values (MRSA strains; strain JSCC 551): 16 µg/mL | MIC Values (MRSA strains; strain JSCC 563): ≦0.125 mcg/mL | MIC Values (MRSA strains; strain JSCC 581 (lacks the mecA gene)): ≦0.125 mcg/mL | MIC Values (MRSA strains; strain JSCC 590 (lacks the mecA gene)): ≦0.125 mcg/mL | MIC Values (MRSA strains; strain JSCC 601): 1 µg/mL | MIC Values (MRSA strains; strain JSCC 640): 32 µg/mL | MIC Values (MRSA strains; strain JSCC 651): 32 µg/mL | MIC Values (MRSA strains; strain JSCC 663): 8 µg/mL | MIC Values (MRSA strains; strain JSCC 681): 8 µg/mL | MIC Values (MRSA strains; strain JSCC 690): 16 µg/mL | MIC Values (MRSA strains; strain JSCC 701): 32 µg/mL | MIC Values (MRSA strains; strain JSCC 713): 32 µg/mL | MIC Values (MRSA strains; strain JSCC 731): 32 µg/mL | MIC Values (MRSA strains; strain JSCC 740): 16 µg/mL | MIC Values (MRSA strains; strain JSCC 751): 32 µg/mL | MIC Values (MRSA strains; strain JSCC 763): 8 µg/mL | MIC Values (MRSA strains; strain JSCC 781): 32 µg/mL | MIC Values (MRSA strains; strain JSCC 870): 16 µg/mL | MIC Values (MRSA strains; strain LIM 2): 8 µg/mL | MIC Values (MRSA strains; strain Mu 3): 128 µg/mL | MIC Values (MRSA strains; strain Mu 50): 64 µg/mL | MIC Values (MRSA strains; strain N315): 1 µg/mL | MIC Values (MRSA strains; strain NCTC 10442): 64 µg/mL | MICs 50% (VRSA strains): 32 mg/L | MICs 90% (VRSA strains): 64 mg/L | MICs Range (VRSA strains): 1 to 128 mg/L | MIC Values (Staph. aureus 29213; strain ATCC 29213, control sample (Ex. 26)): ≦0.125 mcg/mL | MIC Values (Staph. aureus 29213; strain ATCC29213, control sample (Ex. 37)): ≦0.125 mcg/mL
Structure (SMILES): C[C@@H](O)[C@H]1C(=O)N2C(C(=O)O)=C(SCCN=CN)C[C@H]12 [IPM, imipenem]
